Tests used:
AGE-BSA = biological target: T1, AGE-BSA (Bos taurus, UniProt P02769); test: In-vitro AGE breaking activity by ELISA (16 weeks AGE-BSA incubated with test compound); assay type: biochemical, bovine; conditions: for % Breakage: 37°C, 24 hours
T1 construct: Bovine serum albumin (fraction V) (BSA); from tissue
Experimental: AGE breaking activity has been confirmed by the screening procedure as mentioned below: • Materials: • Bovine serum albumin (fraction V) (BSA) • Glucose, analytical grade • Phosphate buffered saline (PBS) • Equipment: • Microplate ELISA Reader - Spectramax Plus (Molecular Devices, USA) • Microplate washer, (Bio -Tec Instruments, USA) • pH meter • Methods of experiment: Elisa (Enzyme Linked Immunosorbent Assay) 160 mg/ml of protein, bovine serum albumin, BSA and 1.6M glucose sugar were dissolved in phosphate buffered saline, PBS. Sodium azide was added at 0.02% concentration as a preservative. The solution was filtered asceptically through a 0.22 µM filter and kept for aging at 37°C for 16 weeks. After 16 weeks the solution was dialyzed against PBS, aliquoted and stored at - 20°C.
To determine the AGE breaking activity, 10 µg/ml of the 16 weeks AGE-BSA was incubated with different concentrations of the test compounds at 37°C for 24 hours and AGE breaking activity of the test compounds by ELISA was determined.
Different concentrations of 16 weeks AGE-BSA were coated on a microtitre plate as standard. Each concentration is coated in triplicates. • 2. The test samples were coated on microtitre plate at a concentration of 5 ng. to 20 ng per well in triplicates. • 3. The plate was incubated at 37°C for one hour. • 4. After incubation the plate was washed with PBST (PBS with 0.05% Tween 20). • 5. Blocking with 5% skimmed milk in PBS at 37°C for one hour was done. • 6. The plate was washed with PBST. • 7. Primary antibody against AGE-BSA was added and the plate is incubated at 37°C for one hour. • 8. The plate was washed with PBST • 9. Secondary antibody anti rabbit HRPO (Horse-Radish Per Oxidase) conjugate was added and the plate is incubated at 37°C for one hour. • 10. The plate was washed with PBST. • 11. Colour development with OPD (orthophenylenediamine dihydrochloride) and hydrogen peroxide was done. • 12. OD (optical density) at (450nm reading - 620nm reading) was measured after incubation at 37°C for 15 minutes with Microplate ELISA Reader.
The breaker activity of the compounds were determined by the following formula: % Breaker activity =(OD450-620 Control - OD450-620 Test)/(OD450-620 Control)x 100 [formula] OD450-620Control= Absorbance of 20ng AGE-BSA after incubation at 37°C for 24 hours without test compound OD450-620Test= Absorbance of 20ng AGE-BSA after incubation at 37°C for 24 hours with required concentration of test compound

[1] = Free radical scavenging activity on ABTS radical cation (absorbance at 730nm); assay type: biochemical
Experimental: This method measures the relative ability of free radical scavenging substances to scavenge the ABTS ^.+ i.e. 2,2-Azino-bis-(3-ethyl benzo thiazoline-6-sulfonate) radical cation as compared to a standard amount of standard or free radical scavengers antioxidants. Incubation of ABTS with Peroxidase (metmyoglobin) and hydrogen peroxide results in the production of radical cation ABTS^.+ . This species is blue- green in colour and can be detected at 730nm. Antioxidants or free radical scavengers in the added sample that causes suppression of the color to a degree that is proportional to their concentration.
• A. Phosphate Citrate Buffer (pH 5.0): 48.5ml of 0.1M citric acid with sufficient 0.2M disodium hydrogen phosphate to produce 100 ml. • B. Phosphate Buffer Saline (PBS): Dissolve 40.0g of NaCl, 1.0g of KCI, 1.0g of KH2PO4 and 3.05g of Na2HPO4 in 1 litre milli-Q water. Dilute 200ml of above solution to 1 litre with milli-Q water (pH 7.4-7.6). • C. 3µM stock solution of Peroxidase was prepared in phosphate buffer saline pH 7.4(PBS). • D. 1.08 mM stock solution of Hydrogen peroxide was prepared in phosphate buffer saline pH 7.4 (PBS).
1 tablet (10mg) was dissolved in phosphate citrate buffer (pH 5.0).
5.0ml of ABTS stock solution was diluted with PBS to 20 ml.
320 µg of the enzyme was dissolved in 2.5 ml of PBS.
12µl of Hydrogen Peroxide (30%w/v) was diluted to 100ml with PBS.
0.1mM of stock solution of the drug was prepared which was serially diluted in PBS to get solutions of different concentrations.
To 18ml of ABTS stock solution, 100µl of Horseradish Peroxidase stock solution was added.
As soon as 1.5 ml of hydrogen peroxide solution was added to the above solution, blue-green colour of the ABTS radicals appeared. This solution was incubated at 30°C for 30 min.
980µl of ABTS radical stock solution was added to an eppendorf tube. To it was added 100µl of various PBS solution.
980µl of ABTS radical stock solutions were added to different eppendorf tubes. To it were added 100µl of various concentrations of drug solution.
The absorbance of control and test samples was recorded immediately at 730nm taking PBS as blank.
Calculation: The percent antioxidant activity was calculated according to the formula: % Antioxidant activity = [O.D of test sample/O.D of control*100]-100.

[2] = comparison in words based on Table 2

T1 sequence (P02769 25-607): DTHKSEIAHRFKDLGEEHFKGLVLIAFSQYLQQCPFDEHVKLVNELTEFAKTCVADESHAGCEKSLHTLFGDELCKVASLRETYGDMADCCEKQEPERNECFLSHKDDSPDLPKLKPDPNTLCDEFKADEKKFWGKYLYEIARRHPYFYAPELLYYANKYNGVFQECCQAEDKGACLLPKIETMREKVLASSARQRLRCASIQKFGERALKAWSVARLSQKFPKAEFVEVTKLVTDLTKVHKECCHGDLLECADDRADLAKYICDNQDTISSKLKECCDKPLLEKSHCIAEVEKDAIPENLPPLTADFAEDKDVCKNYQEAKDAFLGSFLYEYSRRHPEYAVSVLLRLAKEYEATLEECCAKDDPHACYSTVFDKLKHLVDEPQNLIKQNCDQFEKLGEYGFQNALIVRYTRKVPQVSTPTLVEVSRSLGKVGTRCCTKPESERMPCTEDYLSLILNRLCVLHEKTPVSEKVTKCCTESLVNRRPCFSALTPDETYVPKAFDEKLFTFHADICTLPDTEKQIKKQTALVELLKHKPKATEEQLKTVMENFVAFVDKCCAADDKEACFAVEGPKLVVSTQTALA

| SMILES | Relative Free Radical Scavenging Activity(%) on ABTS ([1]; 11.5µM) [%] | Relative Free Radical Scavenging Activity(%) on ABTS ([1]; 23.0µM) [%] | Relative Free Radical Scavenging Activity(%) on ABTS ([1]; 46.0µM) [%] | Relative Free Radical Scavenging Activity(%) on ABTS ([1]; 92.5µM) [%] | Relative Free Radical Scavenging Activity(%) on ABTS ([1]; 925µM) [%] | % Breakage (AGE-BSA; 10 mM test compound) [%] | also measured |
| --- | --- | --- | --- | --- | --- | --- | --- |
| O=C(C[n+]1cccc(C(=O)NNC(=O)c2ccc[n+](CC(=O)c3ccccc3)c2)c1)c1ccccc1 [Compound 1, N, N'-bis [3-carbonyl-1-(2-phenyl-2-oxoethyl)-pyridinium] hydrazine dibromide] | – | – | – | – | – | – | % Breakage (AGE-BSA; 5 mM test compound): 13% |
| O=C(NCCOC(=O)c1ccccc1)c1ccc[n+](CC(=O)c2ccc(Cl)cc2Cl)c1.[Br-] [Compound 8, 1-(2-(2',4'-dichlorophenyl) -2-oxoethyl) -3-(2-(benzoyloxy)ethylamino-carbonyl) pyridinium bromide] | 40.8 | 53.7 | 72.6 | 81.2 | 100 | – | – |
| CC(=O)OCCOC(=O)c1ccc[n+](CC(=O)c2ccccc2)c1.[Br-] [Compound 16, 1-(2-phenyl-2-oxoethyl) -3-(2-(acetoxy)ethyloxycarbonyl) pyridinium bromide] | – | – | – | – | – | 16 | – |
| CCOC(=O)C[n+]1cccc(C(=O)OCCOC(=O)c2ccccc2)c1.[Br-] [Compound 17, 1-(2-ethoxy-2-oxoethyl) -3-(2-(benzoyloxy)ethyloxycarbonyl) pyridinium bromide] | – | – | – | – | – | 19 | – |
| O=C(NCCOC(=O)c1ccccc1)c1cc[n+](CC(=O)c2cccs2)cc1.[Br-] [Compound 18, 1-(2-thien-2'-yl-2-oxoethyl)-4-(2-(benzoyloxy)ethylaminocarbonyl) pyridinium bromide] | 41.8 | 59.5 | 75.2 | 91.0 | 100 | – | – |
| O=C(C[n+]1cccc(C(=O)NCCOC(=O)c2ccccc2)c1)Nc1ccccc1.[Cl-] [Compound 23, 1-(2-phenylamino-2-oxoethyl)-3-((benzoyloxy)ethylaminocarbonyl) pyridinium chloride] | – | – | – | – | – | 37 | % Breakage (AGE-BSA; 25 mM test compound): 90%; AGE breaking activity compared to PTB (AGE-BSA; [2]): superior |
| Cc1ccc(S(=O)(=O)NNC(=O)c2ccc[n+](CC(=O)Nc3ccccc3)c2)cc1.[Cl-] [Compound 27, 1-(2-phenylamino-2-oxoethyl)-3-((4-methylphenyl)sulfonyl hydrazinocarbonyl) pyridinium chloride] | 43.9 | 55.5 | 75.3 | 99.6 | 100 | – | – |
| O=C(C[n+]1cccc(C(=O)NNS(=O)(=O)Cc2ccccc2)c1)c1ccccc1.[Br-] [Compound 31, 1-(2-phenyl-2-oxoethyl)-3-((phenylmethyl)sulfonyl hydrazinocarbonyl) pyridinium bromide] | 41.6 | 57.7 | 66.9 | 99.2 | 100 | – | – |
| O=C(NNC(=O)c1ccc[n+](CC(=O)c2ccco2)c1)c1ccc[n+](CC(=O)c2ccco2)c1 [Compound 32, N, N' - bis [3-carbonyl-1-(2-furan-2'-yl-2-oxoethyl)pyridinium] hydrazine dibromide] | – | – | – | – | – | 14 | – |
| O=C(CCC1CCCCC1)NNC(=O)c1ccc[n+](CC(=O)c2cccs2)c1.[Br-] [Compound 34, 1-(2-thien-2'-yl-2-oxoethyl)-3-((2-(1-oxo-3-cyclohexyl)-ethyl)-hydrazinocarbonyl)-pyridinium bromide] | 50.3 | 53.8 | 65.4 | 80.4 | 100 | – | – |
| O=C1CCCC(CCNNC(=O)c2ccc[n+](CC(=O)Nc3ccccc3)c2)C1.[Br-] (centres unmarked) [Compound 35, 1-(2-phenylamino-2-oxoethyl)-3-({2-(1-oxo-3-cyclohexyl)-ethyl} -hydrazinocarbonyl}-pyridinium bromide] | 50.5 | 63.4 | 80.9 | 90.6 | 100 | – | – |
| O=C(NCCOC(=O)c1ccccc1)c1ccc[n+](CC(=O)c2cccs2)c1.[Br-] [Compound 36, 1-(2-thien-2'-yl-2-oxoethyl)-3-[2-(benzoyloxy)ethylaminocarbonyl]-pyridinium bromide] | 27.6 | 59.2 | 74.2 | 83.9 | 100 | – | – |
| COCCNC(=O)c1ccc[n+](CC(=O)NC2CC2)c1.[Cl-] [Compound 40, 1-(2-cyclopropylamino-2-oxoethyl)-3-(2-methoxyethylaminocarbonyl)-pyridinium chloride] | – | – | – | – | – | 12.38 | – |
| O=C(NNC(=O)c1cccnc1Cl)c1ccc[n+](CC(=O)c2cccs2)c1 [Compound 42, 1-(2-thien-2'yl-2-oxoethyl)-3-(2-(2-chloro-3-pyridoyl)hydrazinocarbonyl) -pyridinium chloride] | – | – | – | – | – | 12.51 | – |
| CC(C)NC(=O)C[n+]1cccc(C(=O)NNS(C)(=O)=O)c1.[Cl-] [Compound 43, 1-(2-isopropylamino-2-oxoethyl)-3-(2-methylsulfonylhydrazinocarbonyl) -pyridinium chloride] | – | – | – | – | – | 10.85 | – |
| COCCNC(=O)c1cc(Br)c[n+](CC(=O)c2cccs2)c1 [Compound 47, 1-(2-thien-2'-yl-2-oxoethyl)-3-((2-methoxyethyl)aminocarbonyl)-5-bromo pyridinium chloride] | – | – | – | – | – | 32.38 | AGE breaking activity compared to PTB (AGE-BSA; [2]): superior |
| Cc1ccc(C(=O)NNC(=O)c2ccc[n+](CC(=O)c3cccs3)c2)c[n+]1CC(=O)c1cccs1 [Compound 49, 1-[1-(2-thien-2'-yl-2-oxoethyl)-6-methyl-3-carbonylpyridinium]-2-[1-(2-Thien-2' -yl-2-oxoethyl)-3-carbonylpyridinium] hydrazine dichloride] | – | – | – | – | – | – | % Breakage (AGE-BSA; 2.5 mM test compound): 85.67%; AGE breaking activity compared to PTB (AGE-BSA; [2]): superior; potency (AGE breaking activity compared to PTB) (AGE-BSA; [2]): significantly much higher |
| CCOC(=O)C1CCCN1C(=O)C[n+]1cccc(C(=O)NNS(C)(=O)=O)c1.[Cl-] (centres unmarked) [Compound 52, 1-(2-(2-ethoxycarbonylpyrrolidin-1-yl)-2-oxoethyl)-3-(methanesulfonyl hydrazinocarbonyl) pyridinium chloride] | – | – | – | – | – | 25.34 | – |
| O=C=Nc1ccc[n+](CC(=O)c2ccc(Cl)cc2Cl)c1.[Br-] [Compound 82, 3-Carbonylamino-1-(2-(2,4-dichlorophenyl)-2-oxoethyl)-pyridinium bromide] | 26.0 | 44.3 | 62.7 | 75.5 | 100 | – | – |
| CCCCNC(=O)c1ccc[n+](CC(=O)c2ccc(Cl)cc2Cl)c1.[Br-] [Compound 97, 1-(2 - (2, 4 - Dichlorophenyl) - 2-oxoethyl) - 3-(n-butylamino-carbonyl) pyridinium bromide] | 16.5 | 27 | 37.8 | 44.5 | 97.8 | – | – |
| O=C(C[n+]1cccc(C(=O)c2ccccc2)c1)c1ccccc1.[Br-] [Compound 98, 1-(2-Phenyl-2-oxoethyl)-3-(1-phenyl-1-oxomethyl) pyridinium bromide] | 7.1 | 26.9 | 51.1 | 78.6 | 99.1 | – | – |
| NC(=O)c1cccnc1 [Niacinamide, reference compound] | 0.0 | 2.2 | 3.8 | 3.8 | 9.2 | – | – |

Reference: EP1304101A1, “Composition and method for use of pyridinium derivatives in cosmetic and therapeutic applications” (Torrent Pharmaceuticals Ltd, priority 2001, dated 2003)
